Test results published in patent US20260191823A1, “PROPHYLACTIC OR THERAPEUTIC AGENT FOR ACUTE KIDNEY INJURY INDUCED BY ANTICANCER AGENT” (KYOWA HAKKO BIO CO., LTD., priority 2022, published 2026).

Columns and labels:
[1] = system: Human proximal renal tubular cells (HK-2); test: Suppression effect on cisplatin-induced cytotoxicity in renal tubular cells (cell counting kit-8); type: cell-based; details: for suppression of cell death over the tested concentrations: 0.01-100 μM test compound, cisplatin 20 μM for 24 h; for suppression of cell death over the tested concentrations / concentration showing a significant cell death-suppressing effect: FIG. 1; for concentration showing a significant cell death-suppressing effect: 0.5 h pre-treatment with test compound, then cisplatin 20 μM for 24 h
Procedure: Human proximal renal tubular cells (HK-2) were seeded into a 96-well plate containing medium at a density of 5×10^3 cells/well. After confirming that the seeded cells had adhered to the plate, each test compound (GSSSG or Na2S4) was added so that the final concentration was 0 μM, 0.01 μM, 0.02 μM, 0.10 μM, 0.39 μM, 1.56 μM, 6.25 μM, 25 μM, or 100 μM, followed by standing at 37° C. for 0.5 hours. Each test compound was dissolved in PBS and then added.
The supernatant in each well was removed, and the cells were washed with PBS. […] Thereafter, cell viability was evaluated using cell counting kit-8 (Dojindo).
The composition of the medium used in Example 1 was as follows: • D-MEM/Ham's F-12 (FUJIFILM Wako Pure Chemical Corporation)+Penicillin-Streptomycin-Amphotericin B (FUJIFILM Wako Pure Chemical Corporation)+GlutaMAX (Thermo Fisher Scientific)+10% FBS.

[2] = system: cisplatin-induced acute kidney injury model animal; test: Cisplatin-induced acute kidney injury model animal; type: in vivo; details: administration group
[3] = system: cisplatin-induced renal injury; details: 5.6 mg/kg intraperitoneal; cited from earlier work
[4] = system: renal dysfunction caused by administration of cisplatin; details: 300 mg/kg intraperitoneally; cited from earlier work

N[C@@H](CCC(=O)N[C@@H](CSSSC[C@H](NC(=O)CC[C@H](N)C(=O)O)C(=O)NCC(=O)O)C(=O)NCC(=O)O)C(=O)O [GSSSG, glutathione trisulfide]
suppression of cell death over the tested concentrations ([1]; HK-2 cells): tendency to suppress cell death in a concentration-dependent manner
concentration showing a significant cell death-suppressing effect ([1]; HK-2 cells): 0.1 µM
cell death-suppressing effect relative to Na2S4 ([1]; HK-2 cells, cisplatin 20 μM, compares 0.1 μM with 100 μM): about 1000 times
number of viable renal tubular cells ([1]; test compound 0.1 μM, cisplatin added, fluorescence images, FIG. 2): notably higher
elevation of blood urea nitrogen (BUN) level [2]: could be suppressed
elevation of serum creatinine (CRE) level [2]: could be suppressed

[Na+].[Na+].[S-]SS[S-] [Na2S4, reference compound]
effect on cisplatin-induced renal injury [3]: effective
suppression of cell death over the tested concentrations ([1]; HK-2 cells): tendency to suppress cell death in a concentration-dependent manner
concentration showing a significant cell death-suppressing effect ([1]; HK-2 cells): 100 µM

CC(C)OC(=O)CNC(=O)C(CS)NC(=O)CCC(N)C(=O)O.O=S(=O)(O)O (centres unmarked) [glutathione monoisopropyl ester sulfate]
cisplatin-induced body weight suppression [4]: alleviates
cisplatin-induced elevated blood urea nitrogen [4]: alleviates
